Experimental data: patent US9745335B2 (Blirt S.A., priority 2012, dated 2017)

Assays:
Candida albicans SC 5314 = assay: antifungal activity in vitro, broader spectrum; type: cell-based
Procedure: (§1) For the determination of antifungal activity in vitro we used method of serial dilution in buffered medium RPMI 1640, pH 7.0, in a 96-wells microplates, according to the standard procedure (National Committee for Clinical Laboratory Standards. Reference method for broth dilution antifungal susceptibility testing of yeast, approved standard, 2nd ed. M27-A2 vol. 22 Wayne, Pa., 2002). The optical density of cells suspension was measured using a microplates reader (Victor^3, Perkin-Elmer) at the wavelength λ=531 nm (A531). On the basis of obtained results the diagrams of relation between A531 values and concentration of examined compound were made.
(§2) Obtained results are presented below in tables 2A and 2B.

[1] = test system: Trichoderma viride LOCK E159; assay: antifungal activity in vitro, broader spectrum; type: cell-based
Procedure: as §1, §2

[2] = test system: Candida stellatoidea CBS 1905; assay: antifungal activity in vitro, broader spectrum; type: cell-based
Procedure: as §1, §2

[3] = test system: Candida lipolytica KKP 322; assay: antifungal activity in vitro, broader spectrum; type: cell-based
Procedure: as §1, §2

[4] = test system: Candida pseudotropicalis KKP 324; assay: antifungal activity in vitro, broader spectrum; type: cell-based
Procedure: as §1, §2

[5] = test system: Candida quilliermondii DSM 11947; assay: antifungal activity in vitro, broader spectrum; type: cell-based
Procedure: as §1, §2

Candida arborea KKP 319 = assay: antifungal activity in vitro, broader spectrum; type: cell-based
Procedure: as §1, §2

[6] = test system: Aspergillus niger LOCK E201; assay: antifungal activity in vitro, broader spectrum; type: cell-based
Procedure: as §1, §2

[7] = test system: Candida dubliniensis CBS 7987; assay: antifungal activity in vitro, broader spectrum; type: cell-based
Procedure: as §1, §2

[8] = test system: Candida parapsilosis DSM 5784; assay: antifungal activity in vitro, broader spectrum; type: cell-based
Procedure: as §1, §2

LLC-PK1 cells = assay: cytotoxic activity against mammalian cells in tissue culture (MTT); type: cell-based, pig
[9] = test system: Candida glabrata DSM 11226; assay: antifungal activity in vitro, serial dilution in RPMI 1640; type: cell-based
Method in brief: (§3)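 Broth microdilution, RPMI 1640 buffered pH 7.0, M27-A2 protocol; read-out OD531; A531 vs concentration curves.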

Candida krusei DSM 6128 = assay: as above; type: cell-based
Method in brief: as §3

[10] = test system: Candida lusitaniae DSM 70102; assay: as above; type: cell-based
Method in brief: as §3

[11] = test system: Saccharomyces cerevisiae ATCC 9763; assay: as above; type: cell-based; conditions: RPMI 1640, pH 7.0; for Antifungal activity IC50: Saccharomyces cerevisiae ATCC 9763 (first head over MIC and IC50); for Antifungal activity MIC: Saccharomyces cerevisiae ATCC 9763
Method in brief: as §3

[12] = test system: Candida tropicalis KKP 334; assay: as above; type: cell-based
Method in brief: as §3

[13] = test system: Candida albicans ATCC 10231; assay: as above; type: cell-based
Method in brief: as §3

Human erythrocytes = assay: hemotoxicity determination (hemolytic activity); type: cell-based
Method in brief: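 Human erythrocytes (2×10^7/ml in saline) were incubated with serially diluted compound for 30 min at 37 °C and then centrifuged. Released haemoglobin was read at A540 against a 0.1% Triton X-100 full-lysis control. EH50 is the interpolated concentration giving 50% of the control A540.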

HepG2 cells = assay: cytotoxic activity against mammalian cells in tissue culture (MTT); type: cell-based, human
CCRF-CEM cells = assay: as above; type: cell-based, human
[14] = test system: Candida albicans clinical strain Gu5 (CaCdr1p, CaCdr2p); assay: antifungal activity against MDR fungal strains and parents; type: cell-based; conditions: C. albicans Gu5 (CaCdr1p, CaCdr2p), fluconazole-resistant
Procedure: as §1

[15] = test system: Candida albicans strain STY31; assay: as above; type: cell-based; conditions: C. albicans STY31, 5674 derivative, deletion of CDR1 and CDR2
Procedure: as §1

[16] = test system: Candida albicans clinical strain F2; assay: as above; type: cell-based; conditions: C. albicans F2, fluconazole sensitive, parent strain for F5
Procedure: as §1

[17] = test system: Candida albicans clinical strain B4 (CaMdr1p); assay: as above; type: cell-based; conditions: C. albicans B4 (CaMdr1p), fluconazole-resistant
Procedure: as §1

[18] = test system: Candida albicans clinical strain B3; assay: as above; type: cell-based; conditions: C. albicans B3, fluconazole sensitive, parent strain for B4
Procedure: as §1

[19] = test system: Candida albicans clinical strain Gu4; assay: as above; type: cell-based; conditions: C. albicans Gu4, fluconazole sensitive, parent strain for Gu5
Procedure: as §1

[20] = test system: Candida albicans strain STY7 (CaCdr1p); assay: as above; type: cell-based; conditions: C. albicans STY7 (CaCdr1p), 5674 derivative, deletion of CDR2
Procedure: as §1

[21] = test system: Candida albicans strain 5674 (CaCdr1p, CaCdr2p); assay: as above; type: cell-based; conditions: C. albicans 5674 (CaCdr1p, CaCdr2p)
Procedure: as §1

[22] = test system: Candida albicans clinical strain F5 (CaMdr1p); assay: as above; type: cell-based; conditions: C. albicans F5 (CaMdr1p), fluconazole-resistant
Procedure: as §1

Molecule | Antifungal activity MIC (Candida albicans SC 5314) [µg/mL] | Antifungal activity MIC [1] [µg/mL] | Antifungal activity MIC [2] [µg/mL] | Antifungal activity MIC [3] [µg/mL] | Antifungal activity MIC [4] [µg/mL] | Antifungal activity MIC [5] [µg/mL] | Antifungal activity MIC (Candida arborea KKP 319) [µg/mL] | Antifungal activity MIC [6] [µg/mL] | Antifungal activity MIC [7] [µg/mL] | Antifungal activity MIC [8] [µg/mL] | IC50 (cytotoxic activity) (LLC-PK1 cells) [µg/mL] | Antifungal activity MIC [9] [µg/mL] | Antifungal activity MIC (Candida krusei DSM 6128) [µg/mL] | Antifungal activity MIC [10] [µg/mL] | Antifungal activity IC50 [11] [µg/mL] | Antifungal activity MIC [11] [µg/mL] | Antifungal activity MIC [12] [µg/mL] | Antifungal activity MIC [13] [µg/mL] | Hemotoxi EH50 (Human erythrocytes) [µg/mL] | IC50 (cytotoxic activity) (HepG2 cells) [µg/mL] | also measured
C[C@@H]1[C@H](O)[C@@H](C)/C=C/C=C/C=C/C=C/C=C/C=C/C=C/[C@H](O[C@@H]2O[C@H](C)[C@@H](O)[C@H](NC(=O)[C@H](N)c3ccccc3)[C@@H]2O)C[C@@H]2O[C@](O)(C[C@@H](O)C[C@@H](O)[C@H](O)CC[C@@H](O)C[C@@H](O)CC(=O)O[C@H]1C)C[C@H](O)[C@H]2C(=O)O [Compound A41, N-D-phenylglycylamphotericin B] | 1 | 4 | 2 | 2 | 2 | 1 | 4 | 2 | 1 | 2 | >100 | 4 | 4 | 2 | 1.46 | 4 | 4 | 2 | >100 | >100 | IC50 (cytotoxic activity) (CCRF-CEM cells): >100 µg/mL; Antifungal activity MIC [14]: 1 µg/mL; Antifungal activity MIC [15]: 1 µg/mL; Antifungal activity MIC [16]: 2 µg/mL; Antifungal activity MIC [17]: 1 µg/mL; Antifungal activity MIC [18]: 1 µg/mL; Antifungal activity MIC [19]: 1 µg/mL; Antifungal activity MIC [20]: 1 µg/mL; Antifungal activity MIC [21]: 1 µg/mL; Antifungal activity MIC [22]: 4 µg/mL
N-(L-N,N-dimethylphenylalanyl)amphotericin B [Compound A43] | 1 | 4 | 1 | 1 | 2 | 1 | 8 | 1 | 1 | 1 | >100 | 4 | 4 | 2 | 1.43 | 4 | 4 | 4 | >100 | >100 | IC50 (cytotoxic activity) (CCRF-CEM cells): >100 µg/mL; Antifungal activity MIC [14]: 2 µg/mL; Antifungal activity MIC [15]: 1 µg/mL; Antifungal activity MIC [16]: 4 µg/mL; Antifungal activity MIC [17]: 1 µg/mL; Antifungal activity MIC [18]: 0.5 µg/mL; Antifungal activity MIC [19]: 1 µg/mL; Antifungal activity MIC [20]: 0.5 µg/mL; Antifungal activity MIC [21]: 1 µg/mL; Antifungal activity MIC [22]: 4 µg/mL
